Data as given in ChEMBL document CHEMBL5465560, “Selectivity Literature for EUbOPEN Chemogenomic Library” (2024).

Key:
[1] = target: Tyrosine-protein kinase CSK (Homo sapiens) (UniProt P41240); experiment: Selectivity interaction (KinomeScan (DiscoverX)) EUB0000229b CSK; details: at 10 µM
[2] = target: Prostaglandin E2 receptor EP2 subtype (Homo sapiens) (UniProt P43116); experiment: Selectivity interaction (Eurofins CEREP Diversity Profile (receptors and ion channels)) EUB0000279b PTGER2; details: at 10 µM
[3] = target: Calcium/calmodulin-dependent protein kinase type 1D (Homo sapiens) (UniProt Q8IU85); experiment: Selectivity interaction (KinomeScan (DiscoverX)) EUB0001079a CAMK1D; details: at 1 µM
[4] = target: T1, Cyclin-dependent kinase 11A (Homo sapiens) (UniProt Q9UQ88); experiment: Selectivity interaction (KinomeScan (DiscoverX)) EUB0001079a CDK11A; details: at 1 µM
T1 sequence (whole entry): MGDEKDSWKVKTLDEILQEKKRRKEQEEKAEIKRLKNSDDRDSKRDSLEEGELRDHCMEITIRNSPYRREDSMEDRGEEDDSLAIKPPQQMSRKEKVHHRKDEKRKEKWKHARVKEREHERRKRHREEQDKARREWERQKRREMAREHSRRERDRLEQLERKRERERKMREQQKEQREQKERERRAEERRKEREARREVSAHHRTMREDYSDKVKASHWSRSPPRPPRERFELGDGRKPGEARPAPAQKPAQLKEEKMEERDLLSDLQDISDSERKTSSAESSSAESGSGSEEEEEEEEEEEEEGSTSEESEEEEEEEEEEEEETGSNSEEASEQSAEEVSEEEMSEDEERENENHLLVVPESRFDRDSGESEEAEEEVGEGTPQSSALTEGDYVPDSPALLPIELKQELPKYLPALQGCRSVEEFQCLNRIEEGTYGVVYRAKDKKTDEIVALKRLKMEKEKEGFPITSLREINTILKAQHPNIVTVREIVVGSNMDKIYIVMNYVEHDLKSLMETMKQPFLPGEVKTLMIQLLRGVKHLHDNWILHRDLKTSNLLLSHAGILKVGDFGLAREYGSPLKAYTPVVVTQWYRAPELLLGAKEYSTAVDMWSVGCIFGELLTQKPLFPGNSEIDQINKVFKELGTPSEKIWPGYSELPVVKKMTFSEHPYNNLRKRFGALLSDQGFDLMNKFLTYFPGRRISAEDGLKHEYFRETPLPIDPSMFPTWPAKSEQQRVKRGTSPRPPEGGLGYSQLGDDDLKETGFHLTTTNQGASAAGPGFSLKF

Cannabinoid receptor 1 = Cannabinoid receptor 1 (Homo sapiens, UniProt P21554); experiment: Selectivity interaction (Cannabinoid CB1 calcium flux assay, agonist and antagonist mode ) EUB0000877a CNR1
[5] = target: Calcium/calmodulin-dependent protein kinase type II subunit delta (Homo sapiens) (UniProt Q13557); experiment: Selectivity interaction (ActivX KiNativ screen (kinase selectivity in THP-1 cell lysates)) EUB0000639a CAMK2D; format: subcellular; details: lysate, at 1 µM
[6] = system: Phosphatidylinositol 4,5-bisphosphate 3-kinase catalytic subunit alpha isoform (Homo sapiens), P42336 [Q546K]; details: at 10 µM
[7] = system: Phosphatidylinositol 4,5-bisphosphate 3-kinase catalytic subunit alpha isoform (Homo sapiens), P42336 [Q546K]; experiment: (§1) Selectivity interaction (KinomeScan (DiscoverX)) EUB0000092b PIK3CA; details: at 10 µM
[8] = system: Phosphatidylinositol 4,5-bisphosphate 3-kinase catalytic subunit alpha isoform (Homo sapiens), P42336 [C420R]; experiment: as §1; details: at 10 µM
[9] = system: Phosphatidylinositol 4,5-bisphosphate 3-kinase catalytic subunit alpha isoform (Homo sapiens), P42336 [E545K]; experiment: as §1; details: at 10 µM
[10] = system: Phosphatidylinositol 4,5-bisphosphate 3-kinase catalytic subunit alpha isoform (Homo sapiens), P42336 [H1047L]; experiment: as §1; details: at 10 µM
[11] = system: Phosphatidylinositol 4,5-bisphosphate 3-kinase catalytic subunit alpha isoform (Homo sapiens), P42336 [M1043I]; experiment: as §1; details: at 10 µM
[12] = system: Phosphatidylinositol 4,5-bisphosphate 3-kinase catalytic subunit alpha isoform (Homo sapiens), P42336 [E542K]; experiment: as §1; details: at 10 µM
[13] = system: Phosphatidylinositol 4,5-bisphosphate 3-kinase catalytic subunit alpha isoform (Homo sapiens), P42336 [E545A]; experiment: as §1; details: at 10 µM
[14] = target: Ribosomal protein S6 kinase alpha-4 (Homo sapiens) (UniProt O75676); experiment: Selectivity interaction (Ambit KINOMEscan and KiNATiv profiling in Jurkat cells) EUB0000090b RPS6KA4; format: cell-based; details: at 1 µM
[15] = target: Protein arginine N-methyltransferase 3 (Homo sapiens, UniProt O60678); experiment: Selectivity interaction (Scintillation proximity assays) EUB0000255b PRMT3
[16] = system: Epidermal growth factor receptor (Homo sapiens), P00533 [G719C]; details: at 10 µM
[17] = target: T2, Membrane-associated tyrosine- and threonine-specific cdc2-inhibitory kinase (Homo sapiens) (UniProt Q99640); experiment: Selectivity interaction (KinomeScan (DiscoverX)) EUB0001619a PKMYT1; details: at 1 µM
T2 sequence (whole entry): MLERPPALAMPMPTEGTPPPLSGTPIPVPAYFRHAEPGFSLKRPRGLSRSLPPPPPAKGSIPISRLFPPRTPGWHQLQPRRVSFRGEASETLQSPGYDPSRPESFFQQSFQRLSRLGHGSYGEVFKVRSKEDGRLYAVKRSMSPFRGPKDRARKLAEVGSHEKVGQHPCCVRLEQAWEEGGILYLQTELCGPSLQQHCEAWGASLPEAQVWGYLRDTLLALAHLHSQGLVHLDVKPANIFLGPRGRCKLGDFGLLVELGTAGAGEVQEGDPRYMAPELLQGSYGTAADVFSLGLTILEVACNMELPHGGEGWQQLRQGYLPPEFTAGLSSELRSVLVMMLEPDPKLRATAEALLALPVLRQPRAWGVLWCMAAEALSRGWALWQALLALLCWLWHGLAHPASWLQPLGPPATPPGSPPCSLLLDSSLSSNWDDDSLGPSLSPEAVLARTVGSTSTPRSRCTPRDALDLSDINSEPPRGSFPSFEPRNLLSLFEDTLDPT

[18] = target: Phosphatidylinositol 4,5-bisphosphate 3-kinase catalytic subunit beta isoform (Homo sapiens) (UniProt P42338); experiment: Selectivity interaction (Adapta Assay) EUB0001632a PIK3CB; details: at 10 µM
[19] = target: Tyrosine-protein kinase JAK2 (Homo sapiens, UniProt O60674); experiment: Selectivity interaction (ProQinase) EUB0000171b JAK2
Chain of Tyrosine-protein kinase JAK2 (O60674 whole entry): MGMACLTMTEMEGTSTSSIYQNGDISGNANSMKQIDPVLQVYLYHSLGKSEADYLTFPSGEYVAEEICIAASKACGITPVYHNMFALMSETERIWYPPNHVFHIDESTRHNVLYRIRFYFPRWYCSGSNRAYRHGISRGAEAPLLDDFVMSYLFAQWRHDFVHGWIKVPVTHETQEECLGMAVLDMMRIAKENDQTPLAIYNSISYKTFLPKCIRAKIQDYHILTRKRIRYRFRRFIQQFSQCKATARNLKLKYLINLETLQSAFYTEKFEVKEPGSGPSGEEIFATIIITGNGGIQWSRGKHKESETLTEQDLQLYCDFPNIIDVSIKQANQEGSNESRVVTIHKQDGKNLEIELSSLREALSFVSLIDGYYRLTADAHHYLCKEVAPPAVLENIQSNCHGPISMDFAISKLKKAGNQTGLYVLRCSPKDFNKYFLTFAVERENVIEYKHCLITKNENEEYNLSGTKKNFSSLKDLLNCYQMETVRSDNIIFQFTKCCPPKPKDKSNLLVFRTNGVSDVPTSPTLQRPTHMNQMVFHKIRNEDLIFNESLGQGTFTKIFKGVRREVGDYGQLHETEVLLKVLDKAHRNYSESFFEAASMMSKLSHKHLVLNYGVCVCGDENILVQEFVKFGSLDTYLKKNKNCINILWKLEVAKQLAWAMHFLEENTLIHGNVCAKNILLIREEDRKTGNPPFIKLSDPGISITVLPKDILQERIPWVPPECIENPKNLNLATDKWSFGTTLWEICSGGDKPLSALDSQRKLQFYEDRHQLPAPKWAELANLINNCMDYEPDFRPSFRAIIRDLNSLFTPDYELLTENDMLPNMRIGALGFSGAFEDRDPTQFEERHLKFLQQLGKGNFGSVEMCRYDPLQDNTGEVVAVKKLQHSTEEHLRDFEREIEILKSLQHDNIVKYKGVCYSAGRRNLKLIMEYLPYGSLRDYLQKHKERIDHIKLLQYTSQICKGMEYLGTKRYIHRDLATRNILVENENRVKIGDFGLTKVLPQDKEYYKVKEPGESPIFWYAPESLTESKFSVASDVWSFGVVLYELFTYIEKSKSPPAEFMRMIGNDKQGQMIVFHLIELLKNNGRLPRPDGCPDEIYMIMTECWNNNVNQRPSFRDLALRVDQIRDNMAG

Chain of Phosphatidylinositol 4,5-bisphosphate 3-kinase catalytic subunit alpha isoform (Homo sapiens), P42336 [Q546K] (P42336 whole entry Q546K, canonical isoform): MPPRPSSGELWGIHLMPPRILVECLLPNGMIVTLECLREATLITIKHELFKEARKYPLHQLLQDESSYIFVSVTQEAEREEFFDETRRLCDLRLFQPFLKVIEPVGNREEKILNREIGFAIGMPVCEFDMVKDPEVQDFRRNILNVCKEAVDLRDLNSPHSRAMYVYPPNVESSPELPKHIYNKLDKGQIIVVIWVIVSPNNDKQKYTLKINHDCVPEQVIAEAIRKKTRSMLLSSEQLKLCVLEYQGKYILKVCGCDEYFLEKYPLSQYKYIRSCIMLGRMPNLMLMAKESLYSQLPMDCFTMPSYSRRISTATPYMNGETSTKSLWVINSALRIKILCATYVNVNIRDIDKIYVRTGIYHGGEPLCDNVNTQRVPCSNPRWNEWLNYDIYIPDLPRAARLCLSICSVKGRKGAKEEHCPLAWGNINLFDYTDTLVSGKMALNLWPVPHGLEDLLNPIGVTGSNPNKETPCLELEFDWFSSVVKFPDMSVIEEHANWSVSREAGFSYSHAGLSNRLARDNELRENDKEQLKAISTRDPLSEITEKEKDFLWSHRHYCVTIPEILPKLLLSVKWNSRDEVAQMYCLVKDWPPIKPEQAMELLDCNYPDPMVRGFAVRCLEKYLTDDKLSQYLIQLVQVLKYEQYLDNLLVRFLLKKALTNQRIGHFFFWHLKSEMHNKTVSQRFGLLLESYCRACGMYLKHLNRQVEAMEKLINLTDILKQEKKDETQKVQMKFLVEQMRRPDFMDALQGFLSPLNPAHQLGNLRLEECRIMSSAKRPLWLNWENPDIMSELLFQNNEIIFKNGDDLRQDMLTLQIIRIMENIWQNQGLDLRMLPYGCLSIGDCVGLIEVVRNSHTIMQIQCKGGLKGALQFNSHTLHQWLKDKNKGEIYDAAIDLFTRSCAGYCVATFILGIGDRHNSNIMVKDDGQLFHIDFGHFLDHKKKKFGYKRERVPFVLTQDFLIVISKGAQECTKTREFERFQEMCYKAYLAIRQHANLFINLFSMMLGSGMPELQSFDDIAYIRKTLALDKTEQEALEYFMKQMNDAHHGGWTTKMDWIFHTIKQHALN
Chain of Phosphatidylinositol 4,5-bisphosphate 3-kinase catalytic subunit alpha isoform (Homo sapiens), P42336 [M1043I] (P42336 whole entry M1043I, canonical isoform): as the sequence (P42336 whole entry Q546K, canonical isoform) above, with K546Q, M1043I counted along it
Chain of Phosphatidylinositol 4,5-bisphosphate 3-kinase catalytic subunit alpha isoform (Homo sapiens), P42336 [E545K] (P42336 whole entry E545K, canonical isoform): as the sequence (P42336 whole entry Q546K, canonical isoform) above, with E545K, K546Q counted along it
Chain of Cannabinoid receptor 1 (P21554 whole entry): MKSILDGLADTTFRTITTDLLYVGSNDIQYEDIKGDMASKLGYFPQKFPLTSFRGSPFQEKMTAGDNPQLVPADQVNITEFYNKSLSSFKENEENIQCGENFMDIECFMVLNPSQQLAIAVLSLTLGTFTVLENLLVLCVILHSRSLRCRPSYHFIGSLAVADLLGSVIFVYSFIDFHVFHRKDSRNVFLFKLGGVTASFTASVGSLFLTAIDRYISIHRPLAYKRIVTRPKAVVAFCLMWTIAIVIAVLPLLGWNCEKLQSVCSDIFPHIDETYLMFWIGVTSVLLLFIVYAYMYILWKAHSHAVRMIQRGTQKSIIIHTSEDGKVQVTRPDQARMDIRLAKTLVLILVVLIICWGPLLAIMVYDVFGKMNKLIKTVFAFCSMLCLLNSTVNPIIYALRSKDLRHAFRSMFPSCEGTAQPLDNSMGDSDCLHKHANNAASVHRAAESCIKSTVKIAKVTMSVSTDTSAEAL

## COc1cc(N(C)c2ccnc3ccc(C(F)(F)F)cc23)cc(OC)c1OC
[1]
  % binding: 91%

## CC(=O)c1cc(-c2ccccc2OCC2CC2)c2ncccn12
[2]
  % of control: 95%

## Nc1cnc(N2CCc3cc(S(=O)(=O)Nc4c(F)cc(Cl)cc4F)cc(N4CCCC4=O)c32)nc1 [TP-020n]
[3]
  % of control: 97%
[4]
  % of control: 89%

## CCC(=O)N1CC[C@H](Nc2ncnc3c2CN(c2cnc(OC)c(C(F)(F)F)c2)CC3)C1 [LENIOLISIB]
Cannabinoid receptor 1
  IC50: > 30 µM

## CC[C@@H]1[C@H](F)C(=O)N[C@@H]1COc1nccc2cc(C(N)=O)c(OC)cc12 [ZIMLOVISERTIB]
[5]
  % of inhibition: 25.1%

## COCC(=O)NC/C=C/c1ccc2ncnc(Nc3ccc(Oc4ccc(C)nc4)c(C)c3)c2c1 [CP-724714]
[6]
  % of control: 38%

## CCC(=O)N1CCN(c2ccc(-n3c(=O)ccc4cnc5ccc(-c6cnc7ccccc7c6)cc5c43)cc2C(F)(F)F)CC1
[7]
  % of control: 6.8%
[8]
  % of control: 0.7%
[9]
  % of control: 0.6%
[10]
  % of control: 2.6%
[11]
  % of control: 8.6%
[12]
  % of control: 1%
[13]
  % of control: 1%

## CN(C)C/C=C/C(=O)Nc1ccc(C(=O)N2CCCC(Nc3ncc(Cl)c(-c4c[nH]c5ccccc45)n3)C2)cc1 (stereo unspecified)
[14]
  % of control: 93%

## COCCN1CCC(c2cc(CN(C)C(=O)c3cccc(Oc4ccccc4)c3)ccn2)CC1
[15]
  IC50: > 10 µM

## Cc1cc([C@@H](C)Nc2ccccc2C(=O)O)c2nc(N3CCOCC3)cc(=O)n2c1 [AZD-6482]
[16]
  % of control: 95%

## N#Cc1cccc(-c2c[nH]c3ncnc(N4CCOCC4)c23)c1
[17]
  % of control: 73%

## Cn1cc(-n2cnc3c(NCc4nc5cc(Cl)c(Cl)cc5[nH]4)nc(N4CCOCC4)nc32)cn1
[18]
  % of inhibition: -11.2%

## C=CC(=O)Nc1cccc(C(=O)Nc2ccc(Nc3cc(-c4[nH]c(SC)nc4C)ccn3)cc2)c1
[19]; at 1 µM
  % of control: 80%
[19]; at 5 µM
  % of control: 72%
